The text below walks through data of US12622948B2 (SUN PHARMACEUTICAL INDUSTRIES LIMITED, priority 2020, dated 2026).

For the test, the system named is type 2 diabetic mouse (db/db) model. Nature of the test: Efficacy study in db/db mice at 10 nM/kg dose (blood glucose, body weight, food intake). In kind it is in vivo. The note with it: for Cumulative food Intake (g) 0-48 hr. vs. Baseline, Mean / Cumulative food Intake (g) 0-96 hr. vs. Baseline, Mean / Delta Blood Glucose (mM) Mean / Body Wt. Change (%) 48 hr. vs. Baseline, Mean / Body Wt. Change (%) 96 hr. vs. Baseline, Mean: 10 nM/kg s.c. single dose. The protocol: The effect of compounds of present invention on blood glucose, food intake and body weight was studied in mice. This study was performed in a type 2 diabetic mouse (db/db) model. […] Baseline blood glucose was measured from all the animals. […] All the animals were administered with test items subcutaneously. […] Delta blood glucose (mM) was calculated.

The mark [1] stands for this setting: db/db mice, 10 nM/kg s.c., vs diabetic control.
Where [2] appears, read: Study 3, db/db mice, 0 hr (baseline).

Marks after values point to notes of the source that are not given here. Non-standard residues stand in square brackets, D forms with d. No end group written: not given here. Moiety A = not defined here; Nva = CCC[C@H](N)C(=O)O; Aib = CC(C)(N)C(=O)O

On to “Compound 4: SEQ ID 07 polypeptide, Lys20 acylated with Moiety A (Y[Nva]EGTFTSDYSI[Nva]LDKIAQK(Moiety A)AFVQWLIAGGPSSGAPPPS-NH2; not fully specified; reading uncertain)”, for which the “Cumulative food Intake (g) 0-48 hr. vs. Baseline, Mean” value (Study 2, db/db mice) is listed as 4.6*** g. Further, the “Cumulative food Intake (g) 0-96 hr. vs. Baseline, Mean” value (Study 2, db/db mice) is listed as 14.4*** g. Also, the “Delta Blood Glucose (mM) Mean” value is reported as 0 mM (Study 2, db/db mice, 0 hr (baseline)); −10.4*** mM (Study 2, db/db mice, 4 hr); −13.3*** mM (Study 2, db/db mice, 8 hr); −13.8*** mM (Study 2, db/db mice, 12 hr); −4.9* mM (Study 2, db/db mice, 24 hr); −3.7* mM (Study 2, db/db mice, 48 hr). Further, the “Delta Blood Glucose (mM) Mean” value is, setting by setting: (Study 2, db/db mice, 72 hr) 0.2 mM; (Study 2, db/db mice, 96 hr) -1.9 mM. Also, the “Body Wt. Change (%) 48 hr. vs. Baseline, Mean” value (Study 2, db/db mice, 48 hr) is listed as −3.8*** %. Besides, under “Study 2, db/db mice, 96 hr”, the “Body Wt. Change (%) 96 hr. vs. Baseline, Mean” value is given as −1.9** %. Moreover, the “blood glucose reduction” value under setting [1] is on record as “statistically significant blood glucose reduction upto 96 hr post treatment”. Also, the “body weight reduction” value under setting [1] was “statistically significant reduction in food intake and body weight”. Under setting [1], the “reduction in food consumption” value is recorded as “statistically significant reduction in food intake”.

For the substance “Compound 8: SEQ ID 08 polypeptide, C-terminal Lys40 acylated with Moiety A (Y[Aib]EGTFTSDYSI[Nva]LEKIAAQEFVNWLLAGGPSSGAPPPSK(Moiety A)-NH2; reading uncertain)”, under “Study 3, db/db mice”, the “Cumulative food Intake (g) 0-48 hr. vs. Baseline, Mean” value is 4.0*** g. For the setting “Study 3, db/db mice”, the “Cumulative food Intake (g) 0-96 hr. vs. Baseline, Mean” value is recorded as 13.9*** g. For the same substance, the “Delta Blood Glucose (mM) Mean” value reads like this: under setting [2], 0 mM; (Study 3, db/db mice, 4 hr) −13.6*** mM; (Study 3, db/db mice, 8 hr) −13.6*** mM; (Study 3, db/db mice, 12 hr) −13.6*** mM; (Study 3, db/db mice, 24 hr) −8.5*** mM; (Study 3, db/db mice, 48 hr) −5.6* mM. For the same substance, the “Delta Blood Glucose (mM) Mean” value reads like this: (Study 3, db/db mice, 72 hr) -1.8 mM; (Study 3, db/db mice, 96 hr) -0.6 mM. For the same substance, where the note is “Study 3, db/db mice, 48 hr”, the “Body Wt. Change (%) 48 hr. vs. Baseline, Mean” value was −3.1*** %. Moreover, under “Study 3, db/db mice, 96 hr”, the “Body Wt. Change (%) 96 hr. vs. Baseline, Mean” value is reported as −2.8*** %.

In the case of “Compound 9: SEQ ID 09 polypeptide (C-terminal Arg, free acid), Lys20 acylated with Moiety A (Y[Aib]EGTFTSDYSI[Nva]LDKIAQK(Moiety A)AFVQWLIAGGPSSGAPPPSR-OH; reading uncertain)”, the “Cumulative food Intake (g) 0-48 hr. vs. Baseline, Mean” value (Study 3, db/db mice) is 4.2*** g. For the setting “Study 3, db/db mice”, the “Cumulative food Intake (g) 0-96 hr. vs. Baseline, Mean” value was 16.7*** g. Further, the “Delta Blood Glucose (mM) Mean” value is 0 mM under setting [2]; −13.1*** mM (Study 3, db/db mice, 4 hr); −12.7*** mM (Study 3, db/db mice, 8 hr); −12.1*** mM (Study 3, db/db mice, 12 hr); −8.7*** mM (Study 3, db/db mice, 24 hr); −7.1*** mM (Study 3, db/db mice, 48 hr). In addition, the “Delta Blood Glucose (mM) Mean” value is recorded as −5.6* mM (Study 3, db/db mice, 72 hr) and 0 mM (Study 3, db/db mice, 96 hr). Further, the “Body Wt. Change (%) 48 hr. vs. Baseline, Mean” value (Study 3, db/db mice, 48 hr) was −3.4*** %. The “Body Wt. Change (%) 96 hr. vs. Baseline, Mean” value (Study 3, db/db mice, 96 hr) is recorded as −3.8*** %.

For the substance “Compound 12: SEQ ID 12 polypeptide, Lys20 acylated with Moiety A (Y[Aib]EGTFTSDYSIILDKIAQK(Moiety A)AFVQWLIAGGPSSGAPPPS-NH2; reading uncertain)”, the “Cumulative food Intake (g) 0-48 hr. vs. Baseline, Mean” value (Study 4, db/db mice) is 10.2* g. Under “Study 4, db/db mice”, the “Cumulative food Intake (g) 0-96 hr. vs. Baseline, Mean” value stood at 26.0 g. For the same substance, the “Delta Blood Glucose (mM) Mean” value (Study 4, db/db mice, 0 hr (baseline)) is 0 mM; the “Delta Blood Glucose (mM) Mean” value (Study 4, db/db mice, 4 hr) was −14.6*** mM; the “Delta Blood Glucose (mM) Mean” value (Study 4, db/db mice, 8 hr) is −14.8*** mM; the “Delta Blood Glucose (mM) Mean” value (Study 4, db/db mice, 12 hr) was −14.9*** mM; the “Delta Blood Glucose (mM) Mean” value (Study 4, db/db mice, 24 hr) was −4.8** mM; the “Delta Blood Glucose (mM) Mean” value (Study 4, db/db mice, 48 hr) came to 2.5 mM. Also, the “Delta Blood Glucose (mM) Mean” value (Study 4, db/db mice, 72 hr) was 3.9 mM and the “Delta Blood Glucose (mM) Mean” value (Study 4, db/db mice, 96 hr) was 6.8 mM. For the setting “Study 4, db/db mice, 48 hr”, the “Body Wt. Change (%) 48 hr. vs. Baseline, Mean” value is −3.0*** %. Also, the “Body Wt. Change (%) 96 hr. vs. Baseline, Mean” value (Study 4, db/db mice, 96 hr) was −0.4%.
